In US20250326785A1, “SODIUM SALT AND ETHANOLAMINE SALT OF 23-HYDROXYTORMENTIC ACID” (HUYABIO International, LLC, priority 2024, published 2025):
Like-named read-outs stand apart in the source and are kept apart here.

Key:
[1] = Varying humidity (VH)-XRPD; assay type: physicochemical; details: 30° C.
Procedure: During the sorption phase, sodium salt Pattern 2 was observed between 40-60% RH. […] A mixture of sodium salt Pattern 2 and 5 was also observed at 80% RH. […] During the second desorption, from 90% RH to 40% RH, sodium salt Pattern 5 was maintained.
VH-XRPD analysis was carried out between 40-0% RH (FIG. 5L).

[2] = Dynamic vapor sorption (DVS) analysis; assay type: physicochemical
Procedure: GC analysis indicated residual solvent contents of 2847 ppm methanol; and 27 ppm TBME. […] No residual methanol or TBME was detected due to signal over-lap. […] TG-DSC analysis indicated two weight losses. The first weight loss of 2.3 wt. % was observed between 20-170° C. […] In the DSC thermogram, three endothermic events were observed (FIG. 17I). […] FT-IR (FIG. 17J) and Raman spectra (FIG. 17K) were recorded for reference. […] XRPD pattern of the ethanolamine salt was retained post-DVS (FIG. 17N). […] However, at the end of the experiment the solids on the microscope slide had discolored (FIG. 17O).

[3] = Salt disproportionation study (slurry in water, XRPD of solids, pH of mother liquor); assay type: physicochemical; details: for XRPD of recovered solids: ca. 24 h at 25° C.
Procedure: The pH of the filtered mother liquor was 9.77.
Salt disproportionation studies of ethanolamine salt. […] The pH of the filtered mother liquor was 8.65.
Method: 40 mg of sodium salt of HBI-3808 having a XRPD of Pattern 2, was weighed into a 2 mL push cap vial and a stirrer bar added. 0.2 mL of water was added to the vial and the experiment was stirred for ca. 24 h at 25° C. After 24 h the slurry was filtered by centrifuge filtration and the recovered solids were analyzed by XRPD. The pH of the filtered mother liquor was measured.

[4] = Stability study at 25° C./60% RH, 40° C./75% RH and 60° C. (XRPD, HPLC purity, impurity tracking); details: for XRPD: number = sodium salt XRPD Pattern; for RRT 0.801 / RRT 0.970 / RRT 1.000 (HBI-3808) / RRT 1.025 (Isomer of HBI-3808) / Total Impurities / RRT 1.935 / RRT 1.767: impurity tracking
Excerpt: Stability of HBI-3808 Sodium Salt Pattern 2 was studied over 13 weeks.
Table 2F presents impurity tracking results from a 13-week stability study of HBI-3808 sodium salt of Pattern 2. […]

[5] = Hydration study in methanol/water aw 0.1, 0.5 and 0.9; assay type: physicochemical
Excerpt: Hydration studies of ethanolamine salt.

[6] = for HPLC Conc./: based on free acid
Excerpt: pH-dependent solubility of the HBI- 3808 sodium salt of Pattern 2 was studied.
pH dependent solubility of the HBI- 3808 sodium salt of Pattern 5 was studied.

[7] = 40° C./75% RH (open vial), 2 Weeks
[8] = 40° C./75% RH (open vial), 4 Weeks
[9] = 40° C./75% RH (open vial), 8 Weeks
[10] = 40° C./75% RH (open vial), 13 Weeks

XRPD pattern during desorption ([1]; 40-0% RH): no change in XRPD Pattern
XRPD pattern during sorption ([1]; at 90% RH): only sodium salt Pattern 5 was observed
XRPD of recovered material post-DVS [2]: consistent with sodium salt of Pattern 5
reversibility of mass uptake/loss ([2]; Pattern 2: second DVS cycle): reversible
water (mass) uptake ([2]; at 80% RH/25° C. (Pattern 2: second DVS cycle)): 0.8 wt. %
irreversible mass loss ([2]; first sorption cycle between 60-80% RH): about 2.4 wt. %
pH of the filtered mother liquor [3]: 9.77
HPLC/ % area ([4]; 25° C./60% RH (open vial), 1 Week): 97.3 % area
HPLC/ % area ([4]; 25° C./60% RH (open vial), 2 Weeks): 97.2 % area
HPLC/ % area ([4]; 25° C./60% RH (open vial), 4 Weeks): 97.3 % area
HPLC/ % area ([4]; 25° C./60% RH (open vial), 8 Weeks): 96.7 % area
HPLC/ % area ([4]; 25° C./60% RH (open vial), 13 Weeks): 97.1 % area
HPLC/ % area ([4]; 40° C./75% RH (open vial), 1 Week): 97.1 % area
HPLC/ % area [4, 7]: 97.0 % area
XRPD [4, 7]: 5
HPLC/ % area [4, 8]: 97.3 % area
XRPD [4, 8]: 5
HPLC/ % area [4, 9]: 96.3 % area
XRPD [4, 9]: 5
HPLC/ % area [4, 10]: 97.0 % area
XRPD [4, 10]: 5
HPLC/ % area ([4]; 60° C. (closed vial), 1 Week): 97.2 % area
XRPD ([4]; 60° C. (closed vial), 1 Week): 2
HPLC/ % area ([4]; 60° C. (closed vial), 2 Weeks): 97.3 % area
XRPD ([4]; 60° C. (closed vial), 2 Weeks): 2
HPLC/ % area ([4]; 60° C. (closed vial), 4 Weeks): 97.3 % area
XRPD ([4]; 60° C. (closed vial), 4 Weeks): 2
HPLC/ % area ([4]; 60° C. (closed vial), 8 Weeks): 96.4 % area
XRPD ([4]; 60° C. (closed vial), 8 Weeks): 2
HPLC/ % area ([4]; 60° C. (closed vial), 13 Weeks): 97.3 % area
RRT 0.801 ([4]; 25° C./60% RH, 1 week): 0.10 % area
RRT 0.970 ([4]; 25° C./60% RH, 1 week): 0.10 % area
RRT 1.000 (HBI-3808) ([4]; 25° C./60% RH, 1 week): 97.31 % area
RRT 1.025 (Isomer of HBI-3808) ([4]; 25° C./60% RH, 1 week): 2.48 % area
Total Impurities ([4]; 25° C./60% RH, 1 week): 2.69 % area
RRT 0.970 ([4]; 25° C./60% RH, 2 weeks): 0.12 % area
RRT 1.000 (HBI-3808) ([4]; 25° C./60% RH, 2 weeks): 97.29 % area
RRT 1.025 (Isomer of HBI-3808) ([4]; 25° C./60% RH, 2 weeks): 2.39 % area
RRT 1.935 ([4]; 25° C./60% RH, 2 weeks): 0.20 % area
Total Impurities ([4]; 25° C./60% RH, 2 weeks): 2.71 % area
RRT 0.970 ([4]; 25° C./60% RH, 4 weeks): 0.11 % area
RRT 1.000 (HBI-3808) ([4]; 25° C./60% RH, 4 weeks): 97.47 % area
RRT 1.025 (Isomer of HBI-3808) ([4]; 25° C./60% RH, 4 weeks): 2.41 % area
Total Impurities ([4]; 25° C./60% RH, 4 weeks): 2.53 % area
RRT 0.970 ([4]; 25° C./60% RH, 8 weeks): 0.10 % area
RRT 1.000 (HBI-3808) ([4]; 25° C./60% RH, 8 weeks): 96.99 % area
RRT 1.025 (Isomer of HBI-3808) ([4]; 25° C./60% RH, 8 weeks): 2.51 % area
RRT 1.767 ([4]; 25° C./60% RH, 8 weeks): 0.29 % area
Total Impurities ([4]; 25° C./60% RH, 8 weeks): 3.01 % area
RRT 0.801 ([4]; 25° C./60% RH, 13 weeks): 0.12 % area
RRT 1.000 (HBI-3808) ([4]; 25° C./60% RH, 13 weeks): 97.33 % area
RRT 1.025 (Isomer of HBI-3808) ([4]; 25° C./60% RH, 13 weeks): 2.37 % area
RRT 1.935 ([4]; 25° C./60% RH, 13 weeks): 0.19 % area
Total Impurities ([4]; 25° C./60% RH, 13 weeks): 2.67 % area
RRT 0.801 ([4]; 40° C./75% RH, 1 week): 0.10 % area
RRT 0.970 ([4]; 40° C./75% RH, 1 week): 0.14 % area
RRT 1.000 (HBI-3808) ([4]; 40° C./75% RH, 1 week): 97.28 % area
RRT 1.025 (Isomer of HBI-3808) ([4]; 40° C./75% RH, 1 week): 2.48 % area
Total Impurities ([4]; 40° C./75% RH, 1 week): 2.72 % area
RRT 0.970 ([4]; 40° C./75% RH, 2 weeks): 0.12 % area
RRT 1.000 (HBI-3808) ([4]; 40° C./75% RH, 2 weeks): 97.26 % area
RRT 1.025 (Isomer of HBI-3808) ([4]; 40° C./75% RH, 2 weeks): 2.40 % area
RRT 1.935 ([4]; 40° C./75% RH, 2 weeks): 0.22 % area
Total Impurities ([4]; 40° C./75% RH, 2 weeks): 2.74 % area
RRT 0.970 ([4]; 40° C./75% RH, 4 weeks): 0.11 % area
RRT 1.000 (HBI-3808) ([4]; 40° C./75% RH, 4 weeks): 97.5 % area
RRT 1.025 (Isomer of HBI-3808) ([4]; 40° C./75% RH, 4 weeks): 2.41 % area
Total Impurities ([4]; 40° C./75% RH, 4 weeks): 2.52 % area
RRT 0.970 ([4]; 40° C./75% RH, 8 weeks): 0.21 % area
RRT 1.000 (HBI-3808) ([4]; 40° C./75% RH, 8 weeks): 96.88 % area
RRT 1.025 (Isomer of HBI-3808) ([4]; 40° C./75% RH, 8 weeks): 2.51 % area
RRT 1.767 ([4]; 40° C./75% RH, 8 weeks): 0.40 % area
Total Impurities ([4]; 40° C./75% RH, 8 weeks): 3.12 % area
RRT 1.000 (HBI-3808) ([4]; 40° C./75% RH, 13 weeks): 97.41 % area
RRT 1.025 (Isomer of HBI-3808) ([4]; 40° C./75% RH, 13 weeks): 2.40 % area
RRT 1.935 ([4]; 40° C./75% RH, 13 weeks): 0.20 % area
Total Impurities ([4]; 40° C./75% RH, 13 weeks): 2.59 % area
RRT 0.801 ([4]; 60° C., 1 week): 0.12 % area
RRT 1.000 (HBI-3808) ([4]; 60° C., 1 week): 97.46 % area
RRT 1.025 (Isomer of HBI-3808) ([4]; 60° C., 1 week): 2.43 % area
Total Impurities ([4]; 60° C., 1 week): 2.54 % area
RRT 0.970 ([4]; 60° C., 2 weeks): 0.12 % area
RRT 1.000 (HBI-3808) ([4]; 60° C., 2 weeks): 97.27 % area
RRT 1.025 (Isomer of HBI-3808) ([4]; 60° C., 2 weeks): 2.41 % area
RRT 1.935 ([4]; 60° C., 2 weeks): 0.20 % area
Total Impurities ([4]; 60° C., 2 weeks): 2.73 % area
RRT 0.970 ([4]; 60° C., 4 weeks): 0.11 % area
RRT 1.000 (HBI-3808) ([4]; 60° C., 4 weeks): 97.49 % area
RRT 1.025 (Isomer of HBI-3808) ([4]; 60° C., 4 weeks): 2.40 % area
Total Impurities ([4]; 60° C., 4 weeks): 2.51 % area
RRT 0.970 ([4]; 60° C., 8 weeks): 0.12 % area
RRT 1.000 (HBI-3808) ([4]; 60° C., 8 weeks): 97.04 % area
RRT 1.025 (Isomer of HBI-3808) ([4]; 60° C., 8 weeks): 2.49 % area
RRT 1.767 ([4]; 60° C., 8 weeks): 0.35 % area
Total Impurities ([4]; 60° C., 8 weeks): 2.96 % area
RRT 1.000 (HBI-3808) ([4]; 60° C., 13 weeks): 97.41 % area
RRT 1.025 (Isomer of HBI-3808) ([4]; 60° C., 13 weeks): 2.41 % area
RRT 1.935 ([4]; 60° C., 13 weeks): 0.18 % area
Total Impurities ([4]; 60° C., 13 weeks): 2.59 % area
RRT 1.000 (HBI-3808) ([4]; T = 0): 97.82 % area
RRT 1.025 (Isomer of HBI-3808) ([4]; T = 0): 2.18 % area
Total Impurities ([4]; T = 0): 2.18 % area
input purity by HPLC ([4]; input material of the stability study (baseline)): 97.2 % area
XRPD of solids recovered at the end of the experiment [5]: consistent with sodium salt Pattern 2
final Measured pH ([6]; FaSSGF): 9.35
HPLC Conc./ ([6]; FaSSGF): >221.2 mg/mL
concentration ([6]; pH 1.2): < 100 µg/mL
HPLC Conc./ ([6]; target pH 1.2 chloride buffer, start 200 mg/mL (ethanolamine salt 100 mg/mL)): <0.005 mg/mL
HPLC Conc./ ([6]; target pH 3.0 acetate buffer): 0.006 mg/mL
HPLC Conc./ ([6]; target pH 4.0 acetate buffer): <0.005 mg/mL
HPLC Conc./ ([6]; target pH 6.8 phosphate buffer): 0.4 mg/mL
HPLC Conc./ ([6]; target pH 8.0 phosphate buffer): 15.3 mg/mL
Structure (SMILES): CC1CCC2(C(=O)[O-])CCC3(C)C(=CCC4C5(C)CC(O)C(O)C(C)(CO)C5CCC43C)C2C1(C)O.[Na+] (centres unmarked) [HBI-3808 sodium salt of Pattern 2, sodium salt of 23-hydroxytormentic acid]
XRPD pattern during sorption ([1]; at 70% RH): composite XRPD diffractogram of sodium salt Pattern 2 and 5
XRPD of recovered solids [3]: consistent with HBI-3808 sodium salt of Pattern 5
XRPD of recovered solids ([3]; listed as sodium salt of HBI-3808 having a XRPD of Pattern 2): consistent with sodium salt of HBI-3808 having a XRPD of pattern 5
change in chemical purity by HPLC over the stability study ([4]; all conditions (25° C./60% RH; 40° C./75% RH; 60° C.), 13 weeks (Pattern 5: 4 weeks)): no significant decrease in chemical purity
